The results in this text go back to patent US11642345B2, “Replication stress pathway agent compositions and methods for treating cancer” (Boundless Bio, Inc., priority 2020, dated 2023).

In test [1] the test system is COLO320-DM and SNU16 (ecDNA+), COLO320-HSR and DLD1 (ecDNA−) cell models. Briefly: In vitro soft agar colony formation assay, 21 days, RNRi (FIG. 40A). It counts as cell-based. Particulars: treated once on day of seeding, increasing doses. The procedure:
(§1) FIGS. 40A-40C show inhibition of RNR blocks nucleotide synthesis causing enhanced replication stress and reduced cellular transformation in ecDNA+ compared to ecDNA-tumor cells. […] In FIG. 40A, to evaluate cellular transformation, an in vitro soft agar colony formation assay was conducted wherein ecDNA bearing COLO320-DM and SNU16 cell models were grown alongside ecDNA− cell models, COLO320-HSR and DLD1 in this 3D-format assay for 21 days. Cells were treated individually only once on the day of the seeding of cells at increasing doses of RNRi, (5-chloro-2-[[rac-(1S,2R)-2-(6-fluoro-2,3-dimethyl-phenyl)-1-(2-oxo-3H-1,3,4-oxadiazol-5-yl)propyl]sulfamoyl]benzamide). In FIG. 40B, to determine change in ecDNA carrying MYC amplified oncogene counts, ecDNA+ (COLO320-DM) cells were treated with an IC-90 dose (10 uM) of RNRi for 21 days. Cells in log-growth phase were arrested in metaphase. FISH (Florescent in-situ hybridization) for MYC oncogene was performed on the fixed metaphase spreads and the nuclei were counterstained with DAPI. […] Cells were lysed and immunoblotted with pRPA32-S33 antibody as a marker of ssDNA-damage induced replication stress.

Test [2] deals with ecDNA+ (COLO320-DM) cells. Nature of the test: IC-90 and IC-70 doses of RNRi in COLO320-DM cells. Type of test: cell-based. As to the method: as §1
Test [3] concerns HeLa ecDNA+ and HeLa ecDNA− cells. Nature of the test: HeLa ecDNA+ vs ecDNA− response to Chk1 inhibition, RS and DNA damage markers (FIG. 41A). It counts as cell-based.
For another test, the system named is HeLa cells. Briefly: HeLa cell confluence by high-content microscopy over three weeks, with or without 100 nM methotrexate. Particulars: three weeks. Type of test: cell-based. As to the method: Cell confluence was measured via high-content microscopy over the time course.
HeLa cells were treated with a WEE1 inhibitor, 0.01-0.3 μM adavosertib alone, with 1 nM-100 nM PD0166285, with 100 nM methotrexate alone, or with a combination of 0.01-0.3 μM adavosertib and 100 nM methotrexate or a combination of 1 nM-100 nM PD0166285 and 100 nM methotrexate over the course of three weeks. Cell confluence was measured via high-content microscopy over the time course.
HeLa cells were treated with a PARG inhibitor, 3-100 μM PD00017273 with (FIG. 35 top panel) or without (FIG. 35 bottom panel) 100 nM methotrexate over the course of 3 weeks. Cell confluence was measured via high-content microscopy over the time course.
Cell confluence was measured via high-content microscopy over the time course. […] However.

Test [4] has as its system ecDNA+ (Colo320 DM) and ecDNA− (Colo320 HSR) cells. Briefly: p-RPA32 S4/S8 foci by immunofluorescence after CHK1i (FIG. 41B). It counts as cell-based. Particulars: 16 hr treatment. The source says: Increased Chk1 phosphorylation at S345 indicates higher activation of RS-activated ATR kinase, while increased gH2AX indicates increased damage resulting from DNA double stranded breaks triggered by replication stress. […] Hyperphosphorylated form of Replication Protein A (RPA) 32 Ser4/Ser8 was detected by immunofluorescence in fixed ecDNA+ (Colo320 DM) and ecDNA− (Colo320 HSR) cell line models that were previously treated with CHK1 i GDC-0575 for 16 hr. Representative bar graph represents % total nuclei positive for P-RPA32 S4/S8 foci (minimum threshold of >3 puncta/nuclei) detected by immunofluorescence in ecDNA+ and ecDNA− cells.

Test [5] has as its system CT26WT E3 G12C KRAS mutant tumor cells. Briefly: Treatment of CT26WT E3 G12C KRAS mutant tumors in mice, tumor growth (Examples 3 and 4). Type of test: in vivo. Particulars: adagrasib 50 mg/kg orally once per day.
Description: (§2) Mice were implanted with CT26WT E3 G12C KRAS mutant tumor cells.
as §2

Another test deals with parental CT26 WT E3 line. Nature of the test: Culture of parental line with adagrasib. It counts as cell-based.
For test [6], the system named is SNU16 cells. Nature of the test: Long-term cell growth / resistance development in SNU16 cells. It counts as cell-based, human. Particulars: for cell growth / resistance formation: 9 weeks. As to the method:
Each treatment arm was terminated once the cell number reached 5×10^6.
SNU16 cells were subdivided into five groups and each group of 1×10^6 cells was subjected to treatment with 1 μM infigratinib, 1 μM erlotinib, 1 μM infigratinib and 1 μM erlotinib, 0.1 μM adavosertib and cell growth was recorded over 9 weeks.
SNU16 cells were subdivided into five groups and each group of 1×10^6 cells was subjected to treatment with infigratinib, erlotinib, PD00017273, infigratinib and erlotinib, or infigratinib and PD00017273 and cell growth was recorded over 9 weeks.
SNU16 (CRL-5974) cell line was purchased from ATCC. SNU16 cells were grown in RPMI 1640 medium (Fisher Scientific) with 10% FBS and 100 U/ml penicillin/streptomycin (Fisher Scientific). For the resistance experiments, SNU16 cells were plated at 2 million per T75 flask and were treated with either 1 μM infigratinib (Selleck Chemicals), 1 μM erlotinib (Selleck Chemicals), 10 nM gemcitabine (Sigma Aldrich), or a combination. The media was changed and fresh drug was added at least once per week. The cells were counted over the span of several weeks to measure cell growth.

In test [7] the test system is infigratinib-resistant SNU16 cells. Briefly: Secondary resistance, cell growth of infigratinib-resistant SNU16 cells over 5 weeks. Type of test: cell-based, human. Particulars: FIG. 26, 1 uM infigratinib, 1 uM erlotinib, 10 nM gemcitabine. The procedure:
The infigratinib-resistant SNU16 cells (generated as shown in FIG. 25) were subdivided into six groups and each group of 1×10^6 cells was subjected to treatment with 1 uM infigratinib, 1 uM erlotinib, 10 nM gemcitabine, or 1 uM erlotinib+10 nM gemcitabine and the cell growth was recorded over 5 weeks. Each treatment arm was terminated once the cell number reached 5×10^6.

Test [8] deals with KATOIII cells. Briefly: Long-term growth curves under targeted inhibitor. Type of test: cell-based. Particulars: infigratinib at EC90 (1 uM), 11 weeks. The procedure:
(§3) To measure growth kinetics over time, each cell line was treated once or twice per week with targeted inhibitor against the amplified oncogene.

For test [9], the system named is MYC, FGFR2, and EGFR copy number in SNU16 cells. Nature of the test: qPCR gene copy number in SNU16 cells during infigratinib treatment. It counts as cell-based, human. Particulars: 1 μM infigratinib for 9 weeks.
Description: The SNU16 cells were treated with 1 μM of an FGFR inhibitor (infigratinib) for 9 weeks. DNA was collected at days 3, 14, 28, 42, 56, and 63 days and qPCR was performed to assess copy number for MYC. FGFR2, and EGFR at each time point. Cells after 8 weeks of infigratinib treatment and untreated SNU16 control cells were also assayed by FISH for EGFR.
To assess ecDNA copy number dynamics throughout the development of infigratinib resistance, DNA was extracted using the QIAamp DNA Mini Kit (Qiagen) and the DNA was amplified via quantitative PCR (qPCR) using Taqman copy number assays (ThermoFisher). The EGFR Taqman assay ID was Hs00997424_cn; GFGR2 assay ID was Hs05182482_cn; and the MYC assay ID was Hs03660964_cn. The cycle threshold values were normalized to the internal RNase P Taqman assay, and gene copy number was calculated using the ΔΔCt method and the DNA from a diploid control cell line, DLD1.
Methods: SNU16 control cells were cultured in RPMI-1640 media with 10% FBS under standard tissue culture conditions at 37° C. and with 5% CO2. Low passage control cells were treated with 1 μM infigratinib over the course of 9 weeks. Cells were passaged as needed and media and infigratinib were replaced at least once per week. DNA was collected at day 3 and weeks 2, 4, 6, 8 and 9. Cells in metaphase were collected at 8 weeks from both control and infigratinib-resistant cells.
The test system of test [10] is SNU16 cells. Nature of the test: Long-term growth curves under targeted inhibitor. It counts as cell-based, human. Particulars: infigratinib at EC90 (1 uM), 6 weeks. The procedure: as §3
The subject of test [11] is SNU16 cells. Nature of the test: 5 day viability assay, CellTiter-Glo 2.0. It counts as cell-based. Particulars: Homo sapiens, SNU-16.
The subject of test [12] is KATOIII cells. Briefly: 5 day viability assay, CellTiter-Glo 2.0. Type of test: cell-based. Particulars: Homo sapiens, KATO III. (In general: Cellular ATP, detected with luciferase, serves as a proxy for viable cell number.)
Test [13] concerns Calu-3 cells. Nature of the test: Long-term growth curves under targeted inhibitor. Type of test: cell-based. Particulars: Calu3, ERBB2 Chromosomal; 2× then 4× the relative EC50, 6 weeks. The procedure: as §3
The test system of test [14] is SKBR3 cells. Briefly: Long-term growth curves under targeted inhibitor. It counts as cell-based. Particulars: SKBP3, ERBB2 Chromosomal; 2× then 4× the relative EC50, 6 weeks. As to the method: as §3
The subject of test [15] is Calu-3 cells. Nature of the test: 5 day viability assay, CellTiter-Glo 2.0. Particulars: Homo sapiens, Calu3, ERBB2 amplification, Chromosomal, read-out: 3-5 day acute cytotoxicity EC50. It counts as cell-based. The procedure: (§4) For these long-term growth curves, the EC50 of targeted therapy was first determined in short term 5 day viability assays. To determine the EC50 of irbinitinib, H2170 cells were plated at 3000 cell/well in a 96-well plate; SKBR3 and Calu-3 cells were plated at 3500 cells/well in a 96-well plate. All cells were dosed with irbinitinib continuously for 5 days (serial dilutions ranging from 12 nM to 1 uM) along with a DMSO control. EC50 curves were determined based on cell viability using CellTiter-Glo 2.0 reagent (Promega). […]

The test system of test [16] is SKBR3 cells. Briefly: 5 day viability assay, CellTiter-Glo 2.0. Particulars: Homo sapiens, SK-BR-3; SKBP3, ERBB2 amplification, Chromosomal; read-out: 3-5 day acute cytotoxicity EC50. Type of test: cell-based. The procedure:
as §4

The subject of another test is H2170 cells. Briefly: 5 day viability assay, CellTiter-Glo 2.0. Type of test: cell-based. Particulars: Homo sapiens, NCI-H2170. The procedure:
as §4

The structures appear in SMILES notation. Bounds are passed on as bounds.

Regarding `Cc1ccc(F)c([C@@H](C)[C@H](NS(=O)(=O)c2ccc(Cl)cc2C(N)=O)c2n[nH]c(=O)o2)c1C` (racemic) [5-chloro-2-[[rac-(1S,2R)-2-(6-fluoro-2,3-dimethyl-phenyl)-1-(2-oxo-3H-1,3,4-oxadiazol-5-yl)propyl]sulfamoyl]benzamide], in test [1], the “cellular transformation, replication stress” value is “enhanced replication stress and reduced cellular transformation in ecDNA+ compared to ecDNA(−) tumor cells”. The compound also returned an IC-70 dose in test [2] of 7 µM. Besides, in test [2] (Homo sapiens, COLO 320DM), the IC90 (usually the concentration needed for an effect of 90%) turned out to be 10 µM.
In the case of `N[C@@H]1CCCN(c2c(Br)cnc3[nH]cc(NC(=O)C4CC4)c23)C1` [GDC-0575], the “induction of markers of RS and DNA damage (Chk1 phosphorylation at S345, gH2AX)” value in test [3] (200 nM for 24 h) was “much stronger induction of markers of RS and DNA damage than ecDNA− cells”. Also, the “sensitivity of HeLa ecDNA+ over HeLa ecDNA− cells” value in test [3] (HeLa ecDNA+ grown in 1 uM methotrexate) is on record as “increased sensitivity”. In addition, in the test on HeLa cells (in combination with 100 nM methotrexate), the “development of methotrexate resistance” value is “prevented development of methotrexate resistance”. Besides, in the test with HeLa cells (10 nM GDC-0575, 100 nM methotrexate, 300 nM-10 μM AZD6738), the “cell growth (cell confluence), agent alone” value is recorded as “no effect on cell growth”. For the same compound, the “pRPA levels (% total nuclei positive for P-RPA32 S4/S8 foci)” value in test [4] is given as “increases pRPA levels in ecDNA+ (DM) cells vs. matched ecDNA− (HSR) cells”.
For `C=C(F)C(=O)N1CCN(c2nc(OC[C@@H]3CCCN3C)nc3c2CCN(c2cccc4cccc(Cl)c24)C3)C[C@@H]1CC#N` [adagrasib], in [5] (Example 3), the “day by which tumors began to exhibit resistance and tumor growth resumed” value is no more than 14 days. Further, the “delay in tumor growth before tumors developed resistance” value in [5] (Example 4) is “about 2 weeks”. In addition, the “sensitivity to the drug in culture” value in the test on parental CT26 WT E3 line is given as “remained sensitive to the drug”.
With `CCN1CCN(c2ccc(Nc3cc(N(C)C(=O)Nc4c(Cl)c(OC)cc(OC)c4Cl)ncn3)cc2)CC1` [infigratinib], in the test on SNU16 cells [6] (FIG. 25, 12 weeks, 1 uM infigratinib, 1 uM erlotinib, 10 nM gemcitabine), the “cell growth / development of primary resistance” value is “strongly suppressed cell growth for 5 weeks, after which cells developed resistance and grew rapidly”. In addition, the “cell growth / resistance formation” value is “transient growth suppression” in the test with SNU16 cells [6] (FIG. 30, 1 μM infigratinib, 1 μM erlotinib, 0.1 μM adavosertib) and “transient growth suppression for approximately 3 weeks” with SNU16 cells [6] (FIG. 34). Moreover, the “cell growth / development of secondary resistance” value in test [7] is recorded as “no effect on cell growth on its own”. Moreover, the “Long-term culture growth properties” value in the test on KATOIII cells [8] is reported as less than 1 viability >10 weeks; in the test on SNU16 cells [10] it was “Near normal”. In addition, in test [9], the “copy number for MYC and FGFR2” value was “remained relatively constant”. The “copy number of EGFR” value in test [9] is “increased”. The EC90 in the test with SNU16 cells [11] (SNU16) and in the test on KATOIII cells [12] was 1 µM in each case. Further, the EC50 (commonly the concentration needed to bring the measured effect to its halfway point) with SNU16 cells [11] (SNU16, ecDNA, read-out: 3-5 day acute cytotoxicity EC50) is 0.014 µM; with KATOIII cells [12] (Chromosomal, read-out: 3-5 day acute cytotoxicity EC50) it was 0.013 µM.
As to `Cc1cc(Nc2ncnc3ccc(NC4=NC(C)(C)CO4)cc23)ccc1Oc1ccn2ncnc2c1` [irbinitinib], the “Long-term culture growth properties” value is “Reduced proliferation” in the test with Calu-3 cells [13] and less than 1% viability >6 weeks in the test with SKBR3 cells [14]. In addition, the EC50 is 0.414 µM with Calu-3 cells [15]; 0.043 µM in the test on SKBR3 cells [16]; 0.11 µM with H2170 cells (H2170, ERBB2 amplification, ecDNA, read-out: 3-5 day acute cytotoxicity EC50). In the test on H2170 cells, the EC90 (commonly the point of the concentration-response curve where the effect stands at 90%) was found to be 0.5 µM.
